By IC50 is commonly meant the point on the concentration scale where inhibition reaches its midpoint. As usually defined, the GI50 is the concentration giving 50% growth inhibition.

Experimental findings from PMC6934184, “Selective DNA-PKcs inhibition extends the therapeutic index of localized radiotherapy and chemotherapy” (The Journal of Clinical Investigation, 2019) are described below.

For assay [1], the system named is NHEJ-mediated DSB repair in HEK293T cells. Nature of the assay: NHEJ plasmid repair assay. As to conditions: 10 µM; 24 hours; AfeI or ScaI linearized plasmid. It counts as cell-based, Human. The method, then:
The ability of NU5455 to impair the nonhomologous end joining (NHEJ) ability of cells was assessed using a modified version of a DNA repair assay developed by Nagel et al. ([52]), which measures the repair of a plasmid encoding blue fluorescent protein (BFP) and GFP linearized by either an ScaI or an AfeI restriction digestion. Full experimental details are given in Supplemental Methods.
Membranes were then washed in TBST and incubated with HRP-conjugated goat anti-mouse or anti-rabbit antibodies (P0447 and P0448 respectively, Dako) in 5% (w/v) milk/TBST at room temperature for 1-2 hours. Conjugates were detected using Clarity Western ECL Substrate (BioRad) and chemiluminescence imaged using the Fuji LAS-3000 Luminescent Image Analyzer System (Fujifilm).
Densitometry analysis was performed using AIDA Image Analyzer software (Raytest). The intensity of all bands was determined following a background subtraction, and the level of pDNA-PKcs stimulation determined by subtracting basal unstimulated pDNA-PKcs Ser2056 levels. pDNA-PKcs Ser2056 band intensity was calculated relative to total DNA-PKcs band intensity, and is given as percentage expression relative to irradiated, DMSO-treated cells. […]
violet laser with 440/50 emission filter to detect blue fluorescence using the VL1 channel. […]
Data were analyzed by FCS Express 6 Flow Research Edition (De Novo Software). […]

The subject of another assay is MCF7 cells. Nature of the assay: clonogenic survival with 2 Gy IR, DNA repair inhibitors. The class given is cell-based, Human. The settings on record: 1 h before and 24 h after IR. As to the method:
Cells were washed in phosphate-buffered saline (PBS), trypsinized and counted. Cells were then reseeded at a known density in drug-free medium into 10 cm dishes (100 - 10 000 cells/dish) and incubated for 8-21 days. Colonies were fixed using Carnoys fixture (75% v/v methanol, 25% v/v acetic acid, Fisher), stained with crystal violet (0.4% w/v in water), and counted using a ColCount automated colony counter (Oxford Optronics). Cell survival was calculated as a percentage of the untreated control.
Alternatively, exponentially growing MCF7 cells were exposed to a range of concentrations of the PARP inhibitor rucaparib, the ATM inhibitor KU55933, the ATR inhibitor VE-821 or NU5455 for 1 hour prior to irradiation with 2 Gy. Cells were then incubated in the continued presence of the DNA repair inhibitors for a further 24 hours prior to replating. […]

Another assay relates to PI3K. Kind of assay: IGF-1-stimulated phospho-AKT Ser473 in MCF7 cells, Western blot. The class given is cell-based, Human. As to conditions: 1 μM, 50 ng/mL IGF-1, 30 min. The method, then: (§1) Exponentially growing MCF7 cells were exposed to a range of concentrations of NU5455 and NU7441 (0.03–10 μM) for 1 hour. To assess the ability of NU5455 and NU7441 to inhibit autophosphorylation of DNA-PKcs at Ser2056, cells were treated with 10 Gy irradiation and incubated for 30 minutes. Alternatively, to investigate the effects of NU5455 and NU7441 against PI3K-dependent phosphorylation of AKT at Ser473, cells were treated with 50 ng/mL insulin-like growth factor-1 (IGF-1; Invitrogen) for 30 minutes. Cell lysates were prepared for the detection of p–DNA-PKcs Ser2056 and total DNA-PKcs, or p–AKT Ser473 and total AKT, respectively, using Western blotting. […]
(§2) Protein lysates were quantified using the Pierce BCA Protein Assay (ThermoFisher). […]
(§3) Membranes were then washed in TBST and incubated with HRP-conjugated goat anti-mouse or anti-rabbit antibodies (P0447 and P0448 respectively, Dako) in 5% (w/v) milk/TBST at room temperature for 1-2 hours. Conjugates were detected using Clarity Western ECL Substrate (BioRad) and chemiluminescence imaged using the Fuji LAS-3000 Luminescent Image Analyzer System (Fujifilm). […]
(§4) Alternatively, basal pAKT Ser473 levels were subtracted from all other pAKT bands, and pAKT band intensity calculated relative to total AKT expression and given as a percentage relative to IGF-1 stimulated, DMSO-treated cells. […]
(A western blot detects proteins with antibodies after separation by electrophoresis.)

The target of another assay is DNA-PK (Homo sapiens, UniProt P78527). Nature of the assay: radiation-induced phospho-DNA-PK Ser2056 in MCF7 cells, Western blot. The class given is cell-based. More on the design: endogenous in cells; host or cells: MCF7. As to conditions: 1 h pretreatment, 30 min after 10 Gy IR, read-out: IC50, radiation-induced activation of DNA-PK (phospho–DNA-PK Ser2056). The method, then:
as §1, §2, §3, §4

In the next assay the test system is SJSA-1 tumor xenografts. Nature of the assay: subcutaneous SJSA-1 xenograft with parenteral etoposide. The class given is in vivo, CD-1 nude mice. The settings on record: etoposide 5 mg/kg i.p., 5 consecutive days. As to the method: Combining systemic administration of etoposide + NU5455 in vivo
SJSA1 cells (1 x 10^7 cells/mouse in 50 µl, 50% v/v Matrigel) were implanted s.c. into the right flank of female CD-1 nude mice. When tumor volumes reached 103-121 mm3 mice were treated daily, for five consecutive days, with NU5455 (30 mg/kg or 100 mg/kg once -daily p.o. in NMP:Encapsin (30% aq):PEG4000 (1:6:3 v/v/v) ) or vehicle, followed immediately with etoposide (5 mg/kg i.p. in saline). Body weight and tumor volume measurements were taken daily during treatment and three times per week post -treatment. Tumor volume was calculated from two-dimensional electronic caliper measurements (Mitutoyo) using the equation ‘width2 x length/2’, where width was the smaller side, and length the longer dimension of the tumor. Mice were humanely killed when; (i) an adverse effect on clinical condition was evident, (ii) tumor bilateral measurements reached 10 mm x 10 mm, (iii) a tumor measurement in any di mension reached 15 mm, or (iv) at study termination. […]

The test system of another assay is A549. Kind of assay: growth inhibition, 72 hour incubation. It counts as cell-based, Human. As to conditions: read-out: Nutlin-3a GI50, individual determinations. As to the method: (§5) Supplemental Table 3. TP53 status of cell lines used.
(§6) incubation with the compound (see Supplemental Methods). GI50 values shown represent either individual determinations or the
(§7) References: (1) Melnikova VO et al., Oncogene, […]

A further assay relates to Calu6. Kind of assay: growth inhibition, 72 hour incubation. The class given is cell-based, Human. As to conditions: read-out: Nutlin-3a GI50, individual determinations. As to the method:
as §5, §6, §7

The next assay deals with HCT116. Nature of the assay: growth inhibition, 72 hour incubation. The class given is cell-based, Human. As to conditions: read-out: Nutlin-3a GI50, mean with standard deviation. As to the method:
as §5, §6, §7

The subject of another assay is Hep3B. Nature of the assay: growth inhibition, 72 hour incubation. It counts as cell-based, Human. As to conditions: read-out: Nutlin-3a GI50, individual determinations. As to the method: as §5, §6, §7
The next assay concerns Huh7. Nature of the assay: growth inhibition, 72 hour incubation. As to conditions: read-out: Nutlin-3a GI50, individual determinations. The class given is cell-based, Human. As to the method: as §5, §6, §7
The subject of the next assay is MCF10a. Kind of assay: growth inhibition, 72 hour incubation. It counts as cell-based, Human. The settings on record: read-out: Nutlin-3a GI50, mean with standard deviation. The method, then: as §5, §6, §7
The test system of the next assay is NHDF. Nature of the assay: growth inhibition, 72 hour incubation. As to conditions: read-out: Nutlin-3a GI50, individual determination. It counts as cell-based, Human. As to the method:
as §5, §6, §7

The subject of another assay is SN40R2. Kind of assay: growth inhibition, 72 hour incubation. The class given is cell-based, Human. The settings on record: read-out: Nutlin-3a GI50, individual determination. The method, then:
as §5, §6, §7

For another assay, the system named is HepG2. Nature of the assay: growth inhibition, 72 hour incubation. The class given is cell-based, Human. As to conditions: read-out: Nutlin-3a GI50, mean with standard deviation. The method, then:
HepG2 Human WT 1.0 ± 0.18 COSMIC […]
as §5, §6, §7

A further assay deals with MCF7. Nature of the assay: growth inhibition, 72 hour incubation. The settings on record: read-out: Nutlin-3a GI50, mean with standard deviation. It counts as cell-based, Human. The method, then:
MCF7 Human WT 2.3 ± 0.20 COSMIC […]
as §5, §6, §7

Another assay relates to 4T1. Kind of assay: growth inhibition, 72 hour incubation. It counts as cell-based, Mouse. As to conditions: read-out: Nutlin-3a GI50, individual determinations. The method, then:
as §5, §6, §7

Another assay deals with B16F10. Nature of the assay: growth inhibition, 72 hour incubation. The class given is cell-based, Mouse. As to conditions: read-out: Nutlin-3a GI50, mean with standard deviation. The method, then:
as §5, §6, §7

In the next assay the test system is M2-10B4. Kind of assay: growth inhibition, 72 hour incubation. It counts as cell-based, Mouse. The settings on record: read-out: Nutlin-3a GI50, mean with standard deviation. The method, then: as §5, §6, §7
For a further assay, the system named is NIH3T3. Kind of assay: growth inhibition, 72 hour incubation. The class given is cell-based, Mouse. As to conditions: read-out: Nutlin-3a GI50, mean with standard deviation. The method, then: as §5, §6, §7
A further assay deals with SJSA-1. Kind of assay: growth inhibition, 72 hour incubation. The settings on record: read-out: Nutlin-3a GI50, mean with standard deviation. It counts as cell-based, Human. As to the method:
SJSA-1 Human WT 1.9 ± 0.19 COSMIC […]
as §5, §6, §7

Where “and” joins values, the source holds several entries; their conditions need not be identical. Identical values can stand only once.

Turning to `O=c1cc(-c2cccc3c2Sc2ccccc2S3)oc(N2CCOCC2)c1` [KU55933, reference compound], the “repair of DNA-DSBs (NHEJ plasmid repair)” value in assay [1] was “NU5455 but not the ATM inhibitor KU55933 inhibits NHEJ-mediated DSB repair”. Moreover, in the assay on MCF7 cells (at 10 μM), the “SER (sensitization enhancement ratio), enhancement of 2 Gy IR clonogenic cell killing” value (“SER (sensitization enhancement ratio)” for short) amounted to 2.3 fold.
For `O=c1cc(N2CCOCC2)oc2c(-c3cccc4c3sc3ccccc34)cccc12` [NU7441, reference compound], the “inhibition of IGF/PI3K-stimulated signaling response (phospho–AKT Ser473)” value in the assay with PI3K is reported as 40% ± 7%. The IC50 on DNA-PK stood at 405 nM.
On to `CNCc1ccc(-c2[nH]c3cc(F)cc4c3c2CCNC4=O)cc1` [rucaparib], for which, in the assay with MCF7 cells (at 1 μM), the “SER (sensitization enhancement ratio)” value is 1.4 fold.
For the compound `CS(=O)(=O)c1ccc(-c2cnc(N)c(C(=O)Nc3ccccc3)n2)cc1` [VE-821], the “SER (sensitization enhancement ratio)” value with MCF7 cells (at 1 μM) was determined as 1.6 fold.
For `COc1cc([C@@H]2c3cc4c(cc3[C@@H](O[C@@H]3O[C@@H]5CO[C@@H](C)O[C@H]5[C@H](O)[C@H]3O)[C@H]3COC(=O)[C@H]23)OCO4)cc(OC)c1O` [Etoposide, etoposide, reference compound], the “antitumor effect, monotherapy” value with SJSA-1 tumor xenografts is reported as “relatively marginal antitumor effect”.
Take `COc1ccc(C2=N[C@@H](c3ccc(Cl)cc3)[C@@H](c3ccc(Cl)cc3)N2C(=O)N2CCNC(=O)C2)c(OC(C)C)c1` [Nutlin-3a]: the concentration for 50% growth inhibition (GI50) in the assay with A549 was 2400 nM and 2900 nM; in the assay with Calu6, above 30 µM; in the assay on HCT116, 2100 ± 710 nM; with Hep3B, above 30 µM; with Huh7, > 10 µM and 27 µM; in the assay on MCF10a, 5.1 ± 2.8 µM. Further, the concentration for 50% growth inhibition (GI50) was 2700 nM in the assay on NHDF; above 30 µM in the assay with SN40R2; 1000 ± 180 nM in the assay with HepG2; 2300 ± 200 nM in the assay with MCF7; above 30 µM with 4T1; 5.7 ± 1.8 µM with B16F10. Further, the 50% growth inhibitory concentration (GI50) was determined as 3.3 ± 0.64 µM in the assay on M2-10B4, 4 ± 1.1 µM in the assay on NIH3T3 and 1900 ± 190 nM with SJSA-1.
